Source: US20130245081A1, “Compositions and Methods for Treating Amyotrophic Lateral Sclerosis” (priority 2009, published 2013)

Tests used:
[1] = test system: patients with ALS; conditions: Part 1
[2] = test system: dogs; conditions: single oral dose; cited from earlier work
[3] = test system: rodents; conditions: single oral dose; cited from earlier work
[4] = test system: monkeys; conditions: single oral dose; cited from earlier work
[5] = test system: rodents; test: Single dose toxicity after oral administration, rodents; conditions: in vivo
[6] = test system: human subjects; conditions: in vivo; cited from earlier work

SMILES	effect of riluzole on change from baseline in ALSFRS-R scores ([1]; across all treatment groups)	mean change from baseline to study endpoint in ALSFRS-R score ([1]; placebo with riluzole)	dose at which vomiting occurred [2]	doses at which death occurred [3]	dose at which major excitation was displayed [4]	human dose equivalent to the lethal rodent dose [5]	human dose equivalent to the lethal rodent dose for a 70 kg individual [5]	dose shown to cause somnolence in humans [6]	initial single dose not tolerated [6]	maximally tolerated dose for humans (Mirapex product insert) [6]
Nc1nc2ccc(OC(F)(F)F)cc2s1 [riluzole, reference compound]	no effect	−3.6	–	–	–	–	–	–	–	–
CCCN[C@H]1CCc2nc(N)sc2C1 [pramipexole, (6S)-2-amino-4,5,6,7-tetrahydro-6-(propylamino)benzothiazole]	–	–	≥ 0.0007 mg/kg	70 to 105 mg/kg	3.5 mg/kg	7 to 12 mg/kg	500 to 850 mg	1.5 mg	greater than 0.20 mg	4.5 mg/day
